Reference: US8198260B2, “Composition for the prevention and/or treatment of disorders due to abnormal lipid metabolism, comprising propionyl L-carnitine and chitosan” (Sigma-Tau Industrie Farmaceutiche Riunite SpA, priority 1999, dated 2012)

Columns and labels:
[1] = tested on: experimentally hypercholesterolaemic rabbits; assay: Tests in experimentally hypercholesterolaemic rabbits (plasma lipoproteins); format: in vivo, New Zealand rabbits
Experimental: Another type of experiment was conducted in New Zealand rabbits kept on a hypercholesterolaemic diet for forty days and treated with alkanoyl L-carnitine, chitosan or with the two types of compounds in combination. In these tests, 0.5% by weight of cholesterol was added to the normal diet of the rabbits consisting of 150 g/day and containing 2% fats, 20% fibres and 11% ashes.
While one group of animals was used as a control group, the remaining groups were treated for six days with propionyl L-carnitine (2 g/100 g diet), chitosan (1 g/100 g diet), or propionyl L-carnitine+acetyl L-carnitine+butyryl L-carnitine (1 g+1 g+1 g/100 g diet) or with chitosan plus propionyl L-carnitine or chitosan plus the alkanoyl carnitine complex at the doses indicated above.
At the end of the fortieth day of treatment blood samples were taken from the ear vein from all animals and the plasma was used to calculate lipoprotein content in the various fractions (VLDL, LDL, HDL) after ultracentrifuging according to the method described by Noble (Noble R. P., J. Lipid Res., 9:693, 1968).

[2] = tested on: male Wistar rats on atherogenic diet; assay: Experimental atherosclerosis tests (atherogenic diet for six weeks); format: in vivo; conditions: 100 mg/kg of each component
Experimental: D2 200 mUST/g diet was administered for six weeks consecutively to different groups of male Wistar rats.
While one group of rats served as a control group, the other groups were administered chitosan (100 mg/kg) or propionyl L-carnitine (100 mg/kg) or chitosan (100 mg/kg) plus propionyl L-carnitine (100 mg/kg).
Another group of animals was administered acetyl L-carnitine (100 mg/kg) and butyryl L-carnitine (100 mg/kg) in addition to chitosan and propionyl L-carnitine.

[3] = tested on: experimentally obese rats; assay: Tests in experimentally obese rats (lipogenic diet for fifteen days); format: in vivo, Wistar rats
Experimental: In these tests, male Wistar rats aged approximately two months were administered a lipogenic diet containing 50% glucose, 20% casein, 4% cellulose, 1% hazel nut oil, 18% starch, 2% vitamin mixture, and 5% salt mixture. The diet was administered for fifteen days consecutively to different groups of rats, one of which served as a control group, whereas the remaining groups were administered daily, per 100 g of diet, 2 g of propionyl L-carnitine or 1 g of chitosan, or the two compounds in combination at the same doses.
Another group was also administered acetyl L-carnitine (2 g/100 g diet) and butyryl L-carnitine (0.5 g/100 g diet) in addition to propionyl L-carnitine and chitosan.
At the end of the fifteenth day since the beginning of the diet, feed consumption and increase in body weight were calculated for each group of rats.

[4] = Day 40 of 0.5% cholesterol diet

CCC(=O)O[C@H](CC(=O)[O-])C[N+](C)(C)C [Propionyl L-carnitine, propionyl L-carnitine]
Plasma lipoprotein concentration HDL ([1]; Day 0): 24.2 ± 2.4 mg/dL
Plasma lipoprotein concentration LDL ([1]; Day 0): 9.8 ± 1.9 mg/dL
Plasma lipoprotein concentration VLDL ([1]; Day 0): 1.4 ± 0.9 mg/dL
Plasma lipoprotein concentration HDL [1, 4]: 26.5 ± 10.4 mg/dL
Plasma lipoprotein concentration LDL [1, 4]: 322 ± 31.4 mg/dL
Plasma lipoprotein concentration VLDL [1, 4]: 832 ± 105 mg/dL
Increase in VLDL compared with control animals (in words) ([1]; fortieth day, hypercholesterolaemic diet): much less significant
Protective effect against atherosclerotic lesions induced by the atherogenic diet [2]: substantial protective effect
Mean daily feed consumption (g)/animal, before treatment ([3]; before treatment, lipogenic diet, per 100 g diet: propionyl L-carnitine 2 g, chitosan 1 g, acetyl L-carnitine 2 g, butyryl L-carnitine 0.5 g): 19.8 ± 0.71 g
Mean body growth, final weight increase ([3]; end of fifteenth day of lipogenic diet, same doses in diet): 60.8 ± 5.2
Mean daily feed consumption (g)/animal, at the end of treatment ([3]; end of fifteenth day, lipogenic diet, per 100 g diet: propionyl L-carnitine 2 g, chitosan 1 g, acetyl L-carnitine 2 g, butyryl L-carnitine 0.5 g): 18.9 ± 0.50 g
